# Reference: ChEMBL document CHEMBL2417369, “Synthesis and evaluation of heteroaryl substituted diazaspirocycles as scaffolds to probe the ATP-binding site of protein kinases” (Bioorg Med Chem, 2013)
# Molecular target: Ribosomal protein S6 kinase alpha-1 (Homo sapiens, UniProt Q15418)
# Test: Inhibition of RSK1 (unknown origin) by microfluidic mobility shift assay
# Ribosomal protein S6 kinase alpha-1, sequence (Q15418 whole entry): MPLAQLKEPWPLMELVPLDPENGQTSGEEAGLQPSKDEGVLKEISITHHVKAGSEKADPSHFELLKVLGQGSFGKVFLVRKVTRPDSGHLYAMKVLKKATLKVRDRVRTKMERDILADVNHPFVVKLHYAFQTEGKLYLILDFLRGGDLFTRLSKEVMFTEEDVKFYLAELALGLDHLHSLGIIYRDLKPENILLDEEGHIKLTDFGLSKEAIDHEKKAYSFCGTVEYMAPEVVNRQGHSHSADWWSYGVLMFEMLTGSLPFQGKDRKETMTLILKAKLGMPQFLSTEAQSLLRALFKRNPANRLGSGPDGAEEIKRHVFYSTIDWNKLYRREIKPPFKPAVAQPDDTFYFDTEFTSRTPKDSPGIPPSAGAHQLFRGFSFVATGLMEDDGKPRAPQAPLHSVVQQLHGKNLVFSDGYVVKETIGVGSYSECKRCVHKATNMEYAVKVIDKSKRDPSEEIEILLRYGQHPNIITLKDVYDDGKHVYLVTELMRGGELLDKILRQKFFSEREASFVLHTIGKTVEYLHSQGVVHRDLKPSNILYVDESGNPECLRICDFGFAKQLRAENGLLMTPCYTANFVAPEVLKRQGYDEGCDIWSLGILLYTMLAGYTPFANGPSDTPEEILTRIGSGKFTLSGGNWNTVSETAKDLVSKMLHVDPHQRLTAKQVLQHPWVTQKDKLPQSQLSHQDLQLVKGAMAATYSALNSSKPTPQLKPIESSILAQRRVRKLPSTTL
structure (smiles),measurement,value
c1nc(N2CCC3(CCCCN3)CC2)c2nc[nH]c2n1,IC50,63 µM
